Data published in US6534082B1, “Method of treating disorders of the eye” (Duke University, priority 1994, dated 2003).

Test system: enucleated cow eyes
Assay: Constant pressure perfusion of enucleated cow eyes, outflow facility
Conditions: 5 h perfusion, 22° centigrade, 15 mm of mercury; for increase in outflow facility at the end of the experiment versus initial baseline: 0.125 mM drug in perfusion medium, ± SEM; for increase in outflow facility at the end of the experiment versus initial baseline, drug plus cysteine: 0.125 mM drug plus 0.625 mM cysteine
Description: Enunciated cow eyes were obtained from a local commercial abattoir, immediately chilled, and then perfused within twenty-four hours using a standard constant pressure perfusion technique. Pairs of eyes from a single animal were used for each experiment and subjected to the same manipulation except for the experimental drug in the experimental eye of perfusion. Briefly, a 5 mm central cornea trephine button was removed from each eye. Radial iridotomy was performed to prevent artificial deepening of the anterior chamber during perfusion. The anterior chamber was then gently irrigated with perfusion medium to remove pigment which might have been liberated by the iridotomy. A Grant stainless steel fitting was then placed into the cornea and connected by twenty-three gauge polyethylene tubing to the fluid reservoir of the perfusion apparatus.
The perfusion medium was Dulbecco's phosphate-buffered salt solution (PBS) (Grand Island Biological Company, Grand Island, N.Y.) with added 5.5 mM glucose. All solutions were filtered through a 0.2 μm Nuclepore filter.
The initial flow value was determined after the eyes had been perfused for one hour which allowed sufficient time to achieve adequate stability. The corneal fitting was removed, and the anterior chamber was gently emptied and refilled with fresh perfusion medium with added drug or sham solution. The corneal fitting was replaced and the eye was perfused for an additional five hours. The outflow facility (flow/pressure) was calculated at the end of the experiment and compared to the initial baseline after the initial hour (pre-drug, both eyes received control perfusion medium for the first hour). The change in the experimental eye was compared to the change in the fellow control eye by a paired T-test. Control eyes were treated similarly except that an osmotically equivalent amount of sodium chloride was added to the perfusion medium in place of the drug. All perfusions were performed at 22° centigrade and the perfusion pressure was 15 mm of mercury.

`CC1(c2ccccc2)Cc2cc(OCC(=O)O)c(Cl)c(Cl)c2C1=O` (stereo not shown) [indacrinone] was tested, and the “increase in outflow facility at the end of the experiment versus initial baseline” value was 113%±24% and the “increase in outflow facility at the end of the experiment versus initial baseline, drug plus cysteine” value was 91%±8.

With `O=C(O)COc1ccc(C(=O)c2cccs2)c(Cl)c1Cl` [ticrynafen] the “increase in outflow facility at the end of the experiment versus initial baseline” value was 102%±23% and the “increase in outflow facility at the end of the experiment versus initial baseline, drug plus cysteine” value was 80%±9%.
